In patent EP1879602B1, “USE OF CACAO POLYPHENOLS FOR CONTROLLING SKIN PIGMENTATION” (priority 2005, dated 2006):

Test system: synthèse de la mélanine
Assay: Intracellular melanin assay by spectrometry at 475 nm on reconstituted epidermis (Skinetic®) co-cultured with melanocytes
Type: cell-based, humaine
Settings: positive control, concentration not given
Source text: L'activité sur la pigmentation (effet dépigmentant et effet pigmentant) a été étudiée à travers • l'évaluation de l'activité de la tyrosinase • l'évaluation de la synthèse de la mélanine (étude qualitative de la mélanine intracellulaire par spectrométrie à 475 nm)
L'étude a été faite sur des épidermes reconstitués (Skinetic®). Des kératinocytes d'origine humaine sont cultivés dans un milieu défini (MCDB 153 modifié) et supplémentés. Les cellules sont cultivées pendant 10 jours à l'interface air/liquide, le milieu de culture étant changé tous les deux jours.
Les épidermes ainsi formés sont mis en co-culture avec des mélanocytes de phototypes II, IV et VI sur des filtres en polycarbonate. L'étude est réalisée entre le 11^ème et le 17^ème jour de la culture.
L'essai est conduit en triplicate après 3 jours de contact.
L'évaluation de la synthèse de la mélanine intracellulaire (étude qualitative) a été effectuée comme indiqué ci-dessus par spectrométrie à 475 nm après digestion des explants de peau humaine puis dissolution dans NaOH 1N et du diméthyl sulfoxyde pendant 30 minutes.

O=c1cc(CO)occ1O [acide kojique]
% (change vs negative control, 4320 min): -42%
Absorbance (475 nm) (3 days contact, triplicate): 0,107 ± 0,01
